# How the values were obtained:
# [1] = tested on: hydrogen peroxide in the blood of mice; assay: Hydrogen peroxide concentration in blood of 6 Gy irradiated mice (d-ROMs test); format: in vivo, C57BL/6 mice; conditions: Example 7; for Hydrogen peroxide concentration: three times in 24 h interval before 6 Gy, blood 72 h after irradiation
# Experimental: For the following experiments C57BL/6 mice (21 gram body weight) were purchased from Japan SLC (Shizuoka, Japan). The mice were used for the experiments with an age of 8 weeks.
# In this Experiment Six Groups were Built, Wherein Each Group Comprises 6 Mice: • a) the first group of mice were not treated and built the negative control, • b) the second group of mice built the positive control, thus the mice were treated with 6 Gy radiation and 72 hours after irradiation blood sampling was performed, • c) the third group of mice was treated with 150 mg Vitamin C per kg body weight, • d) the forth group of mice was treated with 15 mg Vitamin C per kg body weight, and • e) the fifth group of mice was treated with 15 mg of the composition in Example 6 per kg body weight.
# The following experiment was performed for the first, second and fifth group in three independent experiments, for the third group in two independent experiments and for the forth group in one experiment.
# Each mouse was placed in a well-ventilated acrylic container. The composition in Example 6 and Vitamin C, respectively suspended in 0.5 ml water was orally administered three times in a 24 hours interval to the mice of the third to fifth group. 24 hours after the third administration mice were exposed to 6 Gy whole body irradiation (WBI), given at a dose rate of 0.45 Gy/min at 150 kV and 5 mA (HITACHI MBR-1505R2, Tokyo, Japan). The beam was filtered through a 2 mm aluminum board. 72 hours after irradiation blood sampling was performed.
# The d-ROMs (Reactive Oxygen Metabolites) test by using Free Carpe Diem photometric analytical system (Diacron, Grosseto, Italy) was used for the measurement of free radical metabolites in the blood samples of the mice. It is a spectrophotometric method that assesses overall oxidative stress by measuring total hydroperoxide levels, given that hydroperoxides are intermediate oxidative products of lipids, peptides, and amino acids. Briefly, 0.02 ml plasma was diluted in 1 ml acetate-buffered solution. Hydroperoxide groups react with the transition metal ions liberated from the proteins in the acidic medium, and are converted to alkoxyl and peroxyl radicals according to the Fenton reaction. These newly formed radicals, the quantities of which are directly proportional to those of the peroxides, were trapped chemically with 0.02 ml chromogen (N, N-diethyl-para-phenylendiamine), leading to the formation of the radical cation of this chromogen. The purple color resulting from this reaction over time was monitored in a spectrophotometer (Wismarll FRAS4, Tokyo, Japan) at 505 nm. The results of this method were expressed in μmol per liter. […]
# c) the fifth group of mice, comprising 12 mice, was treated with 15 mg of a composition similar to that of Example 8 containing cysteine instead of cystine per kg body weight by oral administration, and
# d) the sixth group of mice, comprising 12 mice, was treated with 15 mg of the composition according to Example 8 per kg body weight by intra-peritoneal administration.
# Each mouse was placed in a well-ventilated acrylic container. The mice representing the positive control were exposed to 6 Gy whole body irradiation (WBI), given at a dose rate of 0.45 Gy/min at 150 kV and 5 mA (HITACHI MBR-1505R2, Tokyo, Japan). The beam was filtered through a 2 mm aluminum board. 72 hours after irradiation blood sampling was performed.
# The composition in Example 8 was orally administered three times in a 24 hours interval to the mice of the second group in the concentration of 15 mg composition per kg body weight, i.e. the mice were pre-treated 3 days with the composition of Example 8 before irradiation. 24 hours after the third administration mice were irradiated using conditions as for positive control. 72 hours after irradiation blood sampling was performed. […]
# hen's egg white lysozyme = assay: Activity test of lysozyme X-irradiated in the presence of additives added before irradiation (a.r.); format: biochemical; conditions: X (1000 Gy); a.r. additive 10 mM; lysozyme 0.1 mg/ml; unirradiated lysozyme = 100%
# Experimental: The hen's egg white lysozyme was purchased from Serva (Heidelberg, Germany), additives and all other substances were of the highest available grade. Lysozyme (0.1 mg/ml) and the additives (10 mM, except otherwise stated) were dissolved in dilute, air-saturated 1 mM sodium phosphate buffer pH 6.5 and were irradiated at 25° C. with X-rays (0-1 kGy) in the absence or presence of the additives. Activity tests of the lysozyme were performed as described in Shugar, 1952. The measurement of lysozyme activity and the ultra-violet inactivation of lysozyme. Biochim. Biophys. Acta 8, 302-309. were recorded in a Jasco UV/VIS spectrophotometer V-530. The activity test of lysozyme is simple and straightforward. The method described by Shugar uses the diluted unirradiated or irradiated enzyme and a cell suspension of Micrococcus lysodeikticus in a special activity buffer (66 mM sodium phosphate buffer with 17 mM NaCl, pH 7.0). The bacterium is suspended in an Erlenmeyer flask in the activity buffer at a concentration of 0.2 mg/ml. Before using the bacterial suspension in the test, the flask has to be swivelled to ensure homogeneous pipetting into the cuvette. Working briskly, the enzyme sample was pipetted to the bacterial solution, and using parafilm to tightly seal the cuvette, was homogeneously hand-mixed. Typical test mixtures (total of 3 ml) consisted of 2.98 ml bacterial solution plus 0.02 ml unirradiated enzyme sample in the absence or presence of additives, and 2.95 ml bacterial solution plus 0.05 ml irradiated enzyme (250 Gy) in the absence of additives, and 2.6 ml bacterial solution plus 0.4 ml irradiated enzyme (1000 Gy) in the absence of additives, to allow reasonable handling of the samples. The decrease in absorbance resulting from a breakdown of the bacteria by the enzyme is measured in a 3-ml cuvette in a spectrophotometer at a wavelength of 450 nm for a continuous time period of 3 min at 25° C. Different decreases in absorbance reflect different activities. The test may also be applied for lysozyme in the presence of antioxidants, since, owing to the high dilution of the samples (lysozyme+antioxidants) in the test and the wavelength used, the antioxidants will not disturb the results of the activity measurement. No further separation techniques are needed. Irradiations were performed in small 2-ml plastic cups at 25° C. The dosage measurement of X-rays was obtained by Fricke dosimetry (ferrous sulfate dosimetry). […] Afterwards the irradiated lysozyme was used in the activity assay as described in example 2 to determine the activity of the lysozyme. For comparison, activities are given in percent. The native, unirradiated lysozyme is used as reference and is considered to have 100% activity. […]
SMILES,"Difference (increase vs positive control) ([1]; 15 mg/kg oral, three times before 6 Gy, positive control 144.7)","Increase rate ([1]; 15 mg/kg oral, three times before 6 Gy, relative to radiation-induced increase 19.7 μmol/l, listed as Vitamin C, 15 mg/kg)",Hydrogen peroxide concentration ([1]; 15 mg/kg oral),"Difference (decrease vs positive control) ([1]; 150 mg/kg oral, three times before 6 Gy, positive control 144.7)","Reduction rate ([1]; 150 mg/kg oral, three times before 6 Gy, relative to radiation-induced increase 19.7 μmol/l, listed as Vitamin C, 150 mg/kg)",Hydrogen peroxide concentration ([1]; 150 mg/kg oral),% Activity (hen's egg white lysozyme)
O=C1O[C@H]([C@@H](O)CO)C(O)=C1O [Ascorbic acid],5.1 µmol/L,25.89%,149.6 µmol/L,3.8 µmol/L,19.29%,140.5 µmol/L,90%
"N[C@@H](CCC(=O)N[C@@H](CS)C(=O)NCC(=O)O)C(=O)O [Glutathione, glutathione]",–,–,–,–,–,–,58%
"OC[C@@H](O)[C@@H](O)[C@H](O)[C@H](O)CO [Mannitol, mannitol]",–,–,–,–,–,–,51%
"O=C[O-].[Na+] [Sodium-Formate, sodium-formate]",–,–,–,–,–,–,75%

# Reference: patent US9089548B2, “Composition for protection against cell-damaging effects” (TIMA FOUNDATION, priority 2011, dated 2015)
